{
  "source": "patent US20240058344A1",
  "about": "“METHODS OF TREATING NEURODEGENERATIVE DISORDERS AND STAT3-LINKED CANCERS USING SUPPRESSORS OF ELECTRON LEAK” (Cornell University, priority 2020, published 2024)",
  "key": {"[1]": {"system": "astrocytic-neuronal co-cultures", "experiment": "Neuronal damage (NeuN) and neuronal firing (MEA) in astrocytic-neuronal co-cultures with AAV-TauP301S", "assay_type": "cell-based, mouse", "conditions": "1 μM", "protocol": "(FIG. 10A) Co-cultures were immunostained for NeuN following transduction with AAV encoding human P301S mutant tau. Vehicle (Veh) or S3QEL2 (S3, 1μM) was added on day 8 in vitro and cells were analyzed on day 14. (FIG. 10B) Example traces recorded using multi-electrode array (MEA). Spikes (black) and network bursts (pink boxes). Top traces show population activities. (FIG. 10C) Average neuronal firing (% of baseline) in co-cultures. Mock treatment (control) or AAV-TauP301S with or without S3QEL2 (S3, 1μM) were added on day 6. n=4 wells per condition, *p<0.05, ANOVA with Bonferroni's test.\nTo begin dissecting the mechanisms by which S3QEL2 affects neural cell function and disease-linked processes, studies in primary cultures were conducted. Isolated mouse-derived neurons were transduced with adeno-associated viral vectors (AAVs) encoding wild-type or the P301S mutant form of the human tau protein (FIG. 8A). […] However, S3QEL reduced neuronal damage in the presence of astrocytes (approx. 30% astrocytes, FIG. 10A). Tau can also promote aberrant neuronal activity and hypersynchrony. S3QEL reduced aberrant neuronal firing in tau-transduced neurons co-cultured with astrocytes (FIGS. 10B-10C)."}, "astrocytes": {"system": "astrocytes", "experiment": "Oxygen consumption rates (mitochondrial respiration) in astrocytes", "assay_type": "cell-based", "excerpt": "Oxygen consumption rates (OCR) and maximal consumption rates are shown for indicated S3QEL2 concentrations and time points. Antimycin and rotenone were used as positive controls to inhibit mitochondrial respiration. ***p<0.001 vs. vehicle, two-way repeated measures ANOVA with Dunnett's multiple comparisons test."}, "[2]": {"experiment": "Brain levels of compound after i.p. injection or oral consumption (pharmacokinetics)", "assay_type": "in vivo, mice", "protocol": "(FIGS. 1A-B) Levels of S3QEL2 (FIG. 1A) and S1QEL1.1 (FIG. 1B) in the brain following a single i.p. injection or oral consumption (per oral, PO), which improved duration of exposure. n=3-6 wild-type mice per group. (FIGS. 1C-D) Body weights of male nontransgenic (NTG) or hTauP301S mice treated with S3QEL2 (FIG. 1C) (S3, 5 mg/kg/day, PO in almond butter), S1QEL1.1 (FIG. 1D) (10 mg/kg/day, PO in almond butter), or vehicle. (FIG. 1E) Levels of S3QEL2 in the mouse brain following almond butter (AB) or chow administration at indicated doses for 21 days. (n=15 mice per dose). n=3-15 wild-type mice per condition. (FIG. 1F) Body weight of 4-5-month-old wild-type male mice treated with formulated chow containing S3QEL2 at indicated doses and durations (n=15 mice per dose).\nA series of pharmacokinetic and drug tolerance experiments with S3QEL2 in adult wild-type and transgenic hTauP301S mice was first performed. Different administration routes and drug formulations were tested. […] Chow that was formulated to deliver 0, 5, 15, or 30 mg/kg/day of S3QEL2 was also tested."}, "[3]": {"system": "GFAP; phospho-serine 202/205 tau", "experiment": "Immunofluorescent staining of GFAP and phospho-serine 202/205 tau (AT8) in hTauP301S mice", "assay_type": "in vivo", "conditions": "6 weeks oral dosing", "excerpt": "Immunofluorescent staining and quantification of astrocytic marker GFAP (red, FIG. 4A) and phospho-serine 202/205 tau (AT8, green, FIG. 4B) in male nontransgenic (NTG) and hTauP301S mice after 6 weeks of oral dosing with S3QEL2 or vehicle. (FIGS. 4C-4E) n=12-16 mice per group; *p<0.05, **p<0.01, ***p<0.001, ANOVA with Bonferroni's test.\n(§1) As assessed by immunolabeling, hTauP301S mice treated with S3QEL2 also had reduced levels of glial fibrillary acidic protein (GFAP)-positive astrogliosis and phosphorylated tau (FIG. 7). Western blotting confirmed reduced levels of phosphorylated but not total tau in these mice (FIG. 5)."}, "hTauP301S mice": {"system": "hTauP301S mice", "experiment": "Survival of hTauP301S mice on S3QEL2-formulated chow", "assay_type": "in vivo", "conditions": "long-term chow administration from 4-5 months of age", "excerpt": "Nontransgenic (NTG) and transgenic hTauP301S male mice received oral dosing with S3QEL2-formulated chow or control chow (Control) for indicated durations starting at 4-5 months of age. n=14-15 mice per genotype and treatment, pairwise Mantel-Cox test.\nSurvival rates in wild-type and transgenic hTauP301S mice during chronic treatment with control or S3QEL2-containing chow was also monitored."}, "tau": {"system": "tau", "experiment": "Western blotting of phospho-tau and total tau in hippocampal tissue of hTauP301S mice", "assay_type": "in vivo", "conditions": "6 weeks oral dosing", "excerpt": "Levels of phospho-tau (FIG. 5A) and total tau (FIG. 5B) as measured by Western blotting in hippocampal tissue from male nontransgenic (NTG) and hTauP301S mice after 6 weeks of oral dosing with S3QEL2 or vehicle. n=3-6 mice per group. *p<0.05, **p<0.01, ***p<0.001, ANOVA with Dunnett's test.\nas §1"}, "Nrf2": {"system": "Nrf2", "experiment": "Hippocampal RNA levels of Nrf2 in hTauP301S mice", "assay_type": "in vivo", "conditions": "5 mg/kg/day, six weeks"}, "[4]": {"experiment": "Solubility in aqueous solutions", "assay_type": "physicochemical"}, "isolated microglia": {"system": "isolated microglia", "experiment": "Markers of reactivity and immune signaling in isolated microglia (qRT-PCR)", "assay_type": "cell-based, mice", "conditions": "S3QEL2 20 μM, 24 h", "protocol": "Microglia isolated from P2-P3 mice were treated with lipopolysaccharide (LPS, 100 ng/ml) or oligomeric Aβ (3 μM), and S3QEL2 (20 μM) or vehicle for 24 h and analyzed by qRT-PCR. n=3 wells per condition."}, "T98G glioblastoma cells": {"system": "T98G glioblastoma cells", "experiment": "Glioblastoma cell proliferation, CellTiter-Glo luciferase assay, T98G", "assay_type": "cell-based, human", "conditions": "0-50 μM, 72 and 96 h", "protocol": "Relative cell density was measured using the CellTiter-Glo luciferase assay. n=3 wells per condition. *p<0.05, **p<0.01, ***p<0.001 vs. 0 μM, one-way ANOVA with Dunnett's multiple comparisons test.\nThe effect of S3QELs on proliferation of glial tumor cells that have different oncogenic mutations was assessed. In particular, proliferation rates were assessed in three different human immortalized glioblastoma cells lines (A-172, T98G, and U-87 MG). A-172 and U-87 lines have mutations in PTEN, a phosphatase that indirectly regulates PI3K activities, whereas T98G cell line has a mutation in p53, a well-known tumor suppressor gene. STAT3 can affect PI3K signaling and p53 transcription and could thereby promote glioblastoma cell proliferation. Whether S3QELs reduce glioblastoma cell proliferation and aberrant intracellular signaling was tested.\nBriefly, two complementary methods were used to assess cell proliferation, including the CellTiter-Glo assay and DAPI staining of cell nuclei. The effects of S3QEL2 treatment on A-172, T98G, and U-87 MG cells were measured at different drug concentrations (0, 6, 20, 30, 40, or 50 μM) and time-points after treatment (72 or 96 hours). S3QEL2 inhibits proliferation of A-172 and T98G glioblastoma cells in a highly dose-dependent manner and these effects are similar at different time-points (FIG. 15A-B)."}},
  "data": [
    {"smiles": "CCCN(CCC)c1ncnc2c1cnn2-c1ccc(C)c(C)c1", "note": "[S3QEL2]", "values": [
      {"measurement": "Aberrant increases in neuronal firing (MEA) in astrocytic-neuronal co-cultures", "setting": "[1]; added day 6", "value": "prevented"},
      {"measurement": "Neuronal damage (NeuN) in astrocytic-neuronal co-cultures", "setting": "[1]; added day 8, analyzed day 14", "value": "prevented neuronal damage"},
      {"measurement": "Mitochondrial respiration (oxygen consumption rates, OCR)", "setting": "astrocytes", "value": "does not affect mitochondrial respiration"},
      {"measurement": "Crossing of the blood-brain barrier (levels in the brain)", "setting": "[2]; after peripheral administration, wild-type mice", "value": "readily crossed the blood-brain barrier"},
      {"measurement": "Increase in the area under the curve of drug presence in the brain, oral intake as compared to i.p. injection", "setting": "[2]; brain, oral vs intraperitoneal", "value": 6, "unit": "fold"},
      {"measurement": "Chronic delivery to the brain by formulated chow", "setting": "[2]; chow vs almond butter, 21 days, wild-type mice", "value": "equally effective in chronically delivering S3QEL2 to the brain"},
      {"measurement": "GFAP-positive astrogliosis (immunolabeling)", "setting": "[3]", "value": "reduced"},
      {"measurement": "Phosphorylated tau (AT8 immunolabeling)", "setting": "[3]", "value": "reduced"},
      {"measurement": "Early mortality associated with tauopathy", "setting": "hTauP301S mice", "value": "significantly reduced early mortality"},
      {"measurement": "Phospho-tau levels (Western blotting)", "setting": "tau", "value": "reduced"},
      {"measurement": "Hippocampal Nrf2 RNA levels", "setting": "Nrf2", "value": "reduced"},
      {"measurement": "Solubility in aqueous solutions", "setting": "[4]", "value": "limited solubility in aqueous solutions"},
      {"measurement": "Markers of reactivity and immune signaling in microglia", "setting": "isolated microglia; LPS 100 ng/ml", "value": "did not affect markers of reactivity and immune signaling"},
      {"measurement": "Markers of reactivity and immune signaling in microglia", "setting": "isolated microglia; oligomeric Aβ 3 μM", "value": "did not affect markers of reactivity and immune signaling"},
      {"measurement": "Cell proliferation (relative cell density, CellTiter-Glo)", "setting": "T98G glioblastoma cells", "value": "dose-dependently inhibited cell proliferation"}
    ]}
  ]
}
